# Test results published in patent US8658604B2, “Template-fixed beta-hairpin peptidomimetics with protease inhibitory activity” (Polyphor Ltd, priority 2005, dated 2014).
# Where two headings read alike, the source gives them in different places. Where a SMILES comes first, the peptide text is derived from it.
# Key:
# [1] = target: T1, CathepsinG, from human neutrophils (Homo sapiens, UniProt P08311); test: Enzymatic assay, cathepsin G; conditions: for Cathepsin G at 100 μM %: at 100 μM (stated in cell instead of IC50)
# T1 sequence (P08311 21-244): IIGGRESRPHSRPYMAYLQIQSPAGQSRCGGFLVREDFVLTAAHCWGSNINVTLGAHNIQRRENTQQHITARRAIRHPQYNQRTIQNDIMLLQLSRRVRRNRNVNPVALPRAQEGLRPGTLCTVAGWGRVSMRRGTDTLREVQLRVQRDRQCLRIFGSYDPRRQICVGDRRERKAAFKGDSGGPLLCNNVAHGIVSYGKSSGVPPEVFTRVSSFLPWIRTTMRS
# [2] = target: Trypsin, from human pancreas (Homo sapiens, UniProt P07477); test: Enzymatic assay, trypsin; conditions: at 100 μM
# [3] = target: T2, Elastase from human neutrophils (Homo sapiens, UniProt P08246); test: Enzymatic assay, elastase; conditions: for Elastase at 100 μM %: at 100 μM (stated in cell instead of IC50)
# T2 sequence (P08246 30-267): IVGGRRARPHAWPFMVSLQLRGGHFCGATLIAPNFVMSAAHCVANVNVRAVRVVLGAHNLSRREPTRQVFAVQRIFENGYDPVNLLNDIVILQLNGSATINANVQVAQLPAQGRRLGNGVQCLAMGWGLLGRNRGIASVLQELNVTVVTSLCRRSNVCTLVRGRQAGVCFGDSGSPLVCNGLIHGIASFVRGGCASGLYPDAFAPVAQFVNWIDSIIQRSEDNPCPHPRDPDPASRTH
# Chymase, from human skin = target: T3, Chymase, from human skin (Homo sapiens, UniProt P23946); test: Enzymatic assay, chymase
# T3 sequence (P23946 22-247): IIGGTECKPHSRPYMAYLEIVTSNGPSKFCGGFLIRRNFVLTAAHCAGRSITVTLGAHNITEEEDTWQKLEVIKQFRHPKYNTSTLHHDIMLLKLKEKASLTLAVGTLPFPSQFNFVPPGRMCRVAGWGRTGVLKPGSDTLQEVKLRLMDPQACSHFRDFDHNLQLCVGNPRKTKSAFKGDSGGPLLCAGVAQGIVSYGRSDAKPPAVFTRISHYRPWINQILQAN
# [4] = target: Chymotrypsin, from human pancreas (Homo sapiens, UniProt P17538); test: Enzymatic assay, chymotrypsin
# Chymotrypsin, from human pancreas, sequence (P17538 19-263): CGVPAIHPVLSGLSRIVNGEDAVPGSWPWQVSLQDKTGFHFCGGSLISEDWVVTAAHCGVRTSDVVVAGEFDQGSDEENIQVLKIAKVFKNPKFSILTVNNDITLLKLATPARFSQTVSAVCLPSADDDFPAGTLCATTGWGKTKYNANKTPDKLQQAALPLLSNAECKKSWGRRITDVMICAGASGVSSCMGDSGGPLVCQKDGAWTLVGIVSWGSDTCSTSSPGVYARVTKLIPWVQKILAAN
# [5] = target: Urokinase from human urine (Homo sapiens, UniProt P00749); test: Enzymatic assay, urokinase
# [6] = target: Thrombin, from Human Plasma (Homo sapiens, UniProt P00734); test: Enzymatic assay, thrombin
# [7] = target: Coagulation Factor Xa, from uman plasma (Homo sapiens, UniProt P00742); test: Enzymatic assay, coagulation factor Xa
# Coagulation Factor Xa, from uman plasma, sequence (P00742 235-488 limits assumed): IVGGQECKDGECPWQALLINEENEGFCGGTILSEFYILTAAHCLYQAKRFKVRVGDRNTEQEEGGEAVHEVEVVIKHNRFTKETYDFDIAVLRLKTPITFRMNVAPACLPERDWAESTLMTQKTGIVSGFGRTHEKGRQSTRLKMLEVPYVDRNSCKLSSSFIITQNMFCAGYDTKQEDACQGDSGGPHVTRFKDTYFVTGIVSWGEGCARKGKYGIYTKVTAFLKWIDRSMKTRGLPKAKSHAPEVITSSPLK
# Coagulation Factor Xa, from uman plasma, sequence (P00742 41-179 limits assumed): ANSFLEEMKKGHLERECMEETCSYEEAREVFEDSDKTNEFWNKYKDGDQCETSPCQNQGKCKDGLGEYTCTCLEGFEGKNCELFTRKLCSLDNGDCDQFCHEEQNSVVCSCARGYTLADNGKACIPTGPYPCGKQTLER
# [8] = system: Tryptase, from human lung; test: Enzymatic assay, tryptase; conditions: at 100 μM
Structure (SMILES),IC50 ([1]; Cathepsin G IC50),Trypsin at 100 μM % [2],Elastase at 100 μM % [3],"Chymase at 100 μM % (Chymase, from human skin)",Chymotrypsin at 100 μM % [4],Urokinase at 100 μM % [5],IC50 ([1]; read-out: Cathepsin G IC50),IC50 ([3]; read-out: Elastase IC50),Thrombin at 100 μM % [6],FXa at 100 μM % [7],IC50 ([3]; Elastase IC50),IC50 [4],Tryptase at 100 μM % [8],Cathepsin G at 100 μM % [1]
"CC[C@H](C)[C@@H]1NC(=O)[C@@H]2CCCN2C(=O)[C@@H]2CCCN2C(=O)[C@H](CC(=O)O)NC(=O)[C@H](CO)NC(=O)[C@H](CCCCN)NC(=O)[C@H]([C@@H](C)O)NC(=O)[C@@H]2CSSC[C@H](NC1=O)C(=O)N[C@@H](CO)C(=O)N1CCC[C@@H]1C(=O)N1CCC[C@H]1C(=O)N[C@@H](C1CCCCC1)C(=O)N2 [Ex. 11] (HELM PEPTIDE1{[O=C([C@@H](N[*:1])C1CCCCC1)[*:2]].C.T.K.S.D.P.P.I.C.S.[dP].P}$PEPTIDE1,PEPTIDE1,2:R3-10:R3|PEPTIDE1,PEPTIDE1,1:R1-13:R2$$$V2.0)",95 nM,6.5%,19 at %,12.1%,73.6%,,,,,,,,,
"CC[C@H](C)[C@@H]1NC(=O)[C@@H]2CCCN2C(=O)[C@@H]2CCCN2C(=O)[C@H](CC(=O)O)NC(=O)[C@H](CO)NC(=O)[C@H](CCCCN)NC(=O)[C@H]([C@@H](C)O)NC(=O)[C@@H]2CSSC[C@H](NC1=O)C(=O)N[C@@H](CCCNC(=N)N)C(=O)N1CCC[C@@H]1C(=O)N1CCC[C@H]1C(=O)N[C@@H](Cc1ccccc1Cl)C(=O)N2 [Ex. 13] (HELM PEPTIDE1{[O=C([C@H](Cc1ccccc1Cl)N[*:1])[*:2]].C.T.K.S.D.P.P.I.C.R.[dP].P}$PEPTIDE1,PEPTIDE1,2:R3-10:R3|PEPTIDE1,PEPTIDE1,1:R1-13:R2$$$V2.0)",100 nM,95.0%,8.2 at %,19.9%,,,,,,,,,,
"C[C@@H](O)[C@@H]1NC(=O)[C@@H]2CSSC[C@H](NC(=O)[C@H](CC3CCCCC3)NC(=O)[C@@H]3CCCN3C(=O)[C@@H]3CCCN3C(=O)[C@H](CC(=O)O)NC(=O)[C@H](CO)NC(=O)[C@H](CCCCN)NC1=O)C(=O)N[C@@H](CO)C(=O)N1CCC[C@@H]1C(=O)N1CCC[C@H]1C(=O)N[C@@H](Cc1ccccc1)C(=O)N2 [compound 54] (HELM PEPTIDE1{F.C.T.K.S.D.P.P.[Cha].C.S.[dP].P}$PEPTIDE1,PEPTIDE1,2:R3-10:R3|PEPTIDE1,PEPTIDE1,1:R1-13:R2$$$V2.0)",,90%,,12.9%,18%,3.2%,66 nM,> 100000 nM,,,,,,
"CC[C@H](C)[C@@H]1NC(=O)[C@@H]2CCCN2C(=O)[C@@H]2CCCN2C(=O)[C@H](CC(=O)O)NC(=O)[C@H](CN)NC(=O)[C@H](CCCCN)NC(=O)[C@H]([C@@H](C)O)NC(=O)[C@@H]2CSSC[C@H](NC1=O)C(=O)N[C@@H](CO)C(=O)N1CCC[C@@H]1C(=O)N1CCC[C@H]1C(=O)N[C@@H](Cc1ccccc1)C(=O)N2 [Ex. 25] (HELM PEPTIDE1{F.C.T.K.[NC[C@H](N[*:1])C(=O)[*:2]].D.P.P.I.C.S.[dP].P}$PEPTIDE1,PEPTIDE1,2:R3-10:R3|PEPTIDE1,PEPTIDE1,1:R1-13:R2$$$V2.0)",102 nM,89.3%,3.2 at %,10.0%,,,,,,,,,,
"CCCC[C@@H]1NC(=O)[C@H](CCCNC(=N)N)NC(=O)[C@@H]2CCCN2C(=O)[C@H]2CCCN2C(=O)[C@H](Cc2ccccc2)NC(=O)[C@H](CCCC)NC(=O)[C@H]([C@@H](C)CC)NC(=O)[C@@H]2CCCN2C(=O)[C@@H]2CCCN2C(=O)[C@H](CC(=O)O)NC(=O)[C@H](CO)NC(=O)[C@H](CCCCN)NC(=O)[C@H]([C@@H](C)O)NC1=O [Ex. 8] (HELM PEPTIDE1{R.[Nle].T.K.S.D.P.P.I.[Nle].F.[dP].P}$PEPTIDE1,PEPTIDE1,1:R1-13:R2$$$V2.0)",126 nM,74.2%,0.8 at %,71.7%,5.6%,,,,,,,,,
"CCCC[C@@H]1NC(=O)[C@H](CCC(N)=O)NC(=O)[C@H]2CCCN2C(=O)[C@H](Cc2ccc(O)cc2)NC(=O)[C@@H]2CSSC[C@H](NC1=O)C(=O)N[C@@H]([C@@H](C)O)C(=O)N[C@@H](C)C(=O)N[C@@H](CO)C(=O)N[C@@H]([C@@H](C)CC)C(=O)N1CCC[C@H]1C(=O)N1CCC[C@H]1C(=O)N[C@@H](CCC(N)=O)C(=O)N2 [Ex. 123] (HELM PEPTIDE1{[Nle].C.T.A.S.I.P.P.Q.C.Y.[dP].Q}$PEPTIDE1,PEPTIDE1,2:R3-10:R3|PEPTIDE1,PEPTIDE1,1:R1-13:R2$$$V2.0)",35200 nM,7.9%,,0%,,7.6%,,,2.7%,0%,14 nM,15000 nM,,
"CC[C@H](C)[C@@H]1NC(=O)[C@@H]2CCCN2C(=O)[C@@H]2CCCN2C(=O)[C@H](CC(=O)O)NC(=O)[C@H](CO)NC(=O)[C@H](CCCCN)NC(=O)[C@H]([C@@H](C)O)NC(=O)[C@@H]2CSSC[C@H](NC1=O)C(=O)N[C@@H](CO)C(=O)N[C@H](C)C(=O)N1CCC[C@H]1C(=O)N[C@@H](Cc1ccccc1)C(=O)N2 [Ex. 49] (HELM PEPTIDE1{F.C.T.K.S.D.P.P.I.C.S.[dA].P}$PEPTIDE1,PEPTIDE1,2:R3-10:R3|PEPTIDE1,PEPTIDE1,1:R1-13:R2$$$V2.0)",82 nM,96%,,0%,0%,6.2%,,,7.9%,,> 10000 nM,,30.5%,
"CCCC[C@@H]1NC(=O)[C@@H]2CCCN2C(=O)[C@H]2CCCN2C(=O)[C@H](Cc2ccc(O)cc2)NC(=O)[C@@H]2CSSC[C@H](NC1=O)C(=O)N[C@@H]([C@@H](C)O)C(=O)N[C@@H](C)C(=O)N[C@@H](CO)C(=O)N[C@@H](CC(C)(C)C)C(=O)N1CCC[C@H]1C(=O)N1CCC[C@H]1C(=O)N[C@@H](CCC(N)=O)C(=O)N2 [Ex. 85] (HELM PEPTIDE1{[Nle].C.T.A.S.[CC(C)(C)C[C@H](N[*:1])C(=O)[*:2]].P.P.Q.C.Y.[dP].P}$PEPTIDE1,PEPTIDE1,2:R3-10:R3|PEPTIDE1,PEPTIDE1,1:R1-13:R2$$$V2.0)",,0%,,,,,,,12.6%,25.6%,28 nM,> 20000 nM,,
"CCCC[C@@H]1NC(=O)[C@H](CCC(=O)O)NC(=O)[C@@H](CCCCN)NC(=O)[C@H](Cc2ccc(O)cc2)NC(=O)[C@@H]2CSSC[C@H](NC1=O)C(=O)N[C@@H]([C@@H](C)O)C(=O)N[C@@H](C)C(=O)N[C@@H](CO)C(=O)N[C@@H]([C@@H](C)CC)C(=O)N1CCC[C@H]1C(=O)N1CCC[C@H]1C(=O)N[C@@H](CCC(N)=O)C(=O)N2 [Ex. 127] (HELM PEPTIDE1{[Nle].C.T.A.S.I.P.P.Q.C.Y.[dK].E}$PEPTIDE1,PEPTIDE1,2:R3-10:R3|PEPTIDE1,PEPTIDE1,1:R1-13:R2$$$V2.0)",,0%,,1.9%,47.2%,,,,3.7%,13.3%,29 nM,,0%,64 at 100%
"CCCC[C@@H]1NC(=O)[C@@H]2CCCN2C(=O)[C@H]2CCCN2C(=O)[C@H](Cc2ccc(O)cc2)NC(=O)[C@@H]2CSSC[C@H](NC1=O)C(=O)N[C@@H](C)C(=O)N[C@@H](C)C(=O)N[C@@H](CO)C(=O)N[C@@H]([C@@H](C)CC)C(=O)N1CCC[C@H]1C(=O)N1CCC[C@H]1C(=O)N[C@@H](CCC(N)=O)C(=O)N2 [Ex. 86] (HELM PEPTIDE1{[Nle].C.A.A.S.I.P.P.Q.C.Y.[dP].P}$PEPTIDE1,PEPTIDE1,2:R3-10:R3|PEPTIDE1,PEPTIDE1,1:R1-13:R2$$$V2.0)",,0%,,0%,,,,,10.7%,24.8%,26 nM,> 100000 nM,0%,47 at 100%
"CCCC[C@@H]1NC(=O)[C@@H]2CCCN2C(=O)[C@H]2CCCN2C(=O)[C@H](CO)NC(=O)[C@@H]2CSSC[C@H](NC1=O)C(=O)N[C@@H]([C@@H](C)O)C(=O)N[C@@H](CCCCN)C(=O)N[C@@H](CO)C(=O)N[C@@H](CC(=O)O)C(=O)N1CCC[C@H]1C(=O)N1CCC[C@H]1C(=O)N[C@@H]([C@@H](C)CC)C(=O)N2 [Ex. 10] (HELM PEPTIDE1{[Nle].C.T.K.S.D.P.P.I.C.S.[dP].P}$PEPTIDE1,PEPTIDE1,2:R3-10:R3|PEPTIDE1,PEPTIDE1,1:R1-13:R2$$$V2.0)",75 nM,89.9%,0.3 at %,9.4%,,,,,,,,,,
